BindingDB's records for doi:10.1021/cb400407c (Duke University Medical Center, 2013)
pIC50, pKd: −log10 of the molar value. Values joined by “and” are separate entries in the source; they are usually repeats but may differ in a detail not shown here. Equal entries are not always repeated.

Key:
Assay in all cases: Kinome Profiling
[1] = molecular target: Death-associated protein kinase 1 (Homo sapiens, UniProt P53355)
Protocol: (§1) HS38 was evaluated using a P-33 ATP filter-binding assay by the International Centre for Kinase Profiling (University of Dundee) against 124 purified protein kinases using previously described methods.

[2] = molecular target: Serine/threonine-protein kinase pim-3 (Homo sapiens, UniProt Q86V86)
Protocol: as §1

[3] = molecular target: Rho-associated protein kinase 2 (Homo sapiens, UniProt O75116)
Protocol: as §1

[4] = molecular target: Serine/threonine-protein kinase pim-1 (Homo sapiens, UniProt P11309)
Protocol: as §1

[5] = molecular target: Serine/threonine-protein kinase pim-2 (Homo sapiens, UniProt Q9P1W9)
Protocol: as §1

Death-associated protein kinase 1, sequence (P53355 whole entry): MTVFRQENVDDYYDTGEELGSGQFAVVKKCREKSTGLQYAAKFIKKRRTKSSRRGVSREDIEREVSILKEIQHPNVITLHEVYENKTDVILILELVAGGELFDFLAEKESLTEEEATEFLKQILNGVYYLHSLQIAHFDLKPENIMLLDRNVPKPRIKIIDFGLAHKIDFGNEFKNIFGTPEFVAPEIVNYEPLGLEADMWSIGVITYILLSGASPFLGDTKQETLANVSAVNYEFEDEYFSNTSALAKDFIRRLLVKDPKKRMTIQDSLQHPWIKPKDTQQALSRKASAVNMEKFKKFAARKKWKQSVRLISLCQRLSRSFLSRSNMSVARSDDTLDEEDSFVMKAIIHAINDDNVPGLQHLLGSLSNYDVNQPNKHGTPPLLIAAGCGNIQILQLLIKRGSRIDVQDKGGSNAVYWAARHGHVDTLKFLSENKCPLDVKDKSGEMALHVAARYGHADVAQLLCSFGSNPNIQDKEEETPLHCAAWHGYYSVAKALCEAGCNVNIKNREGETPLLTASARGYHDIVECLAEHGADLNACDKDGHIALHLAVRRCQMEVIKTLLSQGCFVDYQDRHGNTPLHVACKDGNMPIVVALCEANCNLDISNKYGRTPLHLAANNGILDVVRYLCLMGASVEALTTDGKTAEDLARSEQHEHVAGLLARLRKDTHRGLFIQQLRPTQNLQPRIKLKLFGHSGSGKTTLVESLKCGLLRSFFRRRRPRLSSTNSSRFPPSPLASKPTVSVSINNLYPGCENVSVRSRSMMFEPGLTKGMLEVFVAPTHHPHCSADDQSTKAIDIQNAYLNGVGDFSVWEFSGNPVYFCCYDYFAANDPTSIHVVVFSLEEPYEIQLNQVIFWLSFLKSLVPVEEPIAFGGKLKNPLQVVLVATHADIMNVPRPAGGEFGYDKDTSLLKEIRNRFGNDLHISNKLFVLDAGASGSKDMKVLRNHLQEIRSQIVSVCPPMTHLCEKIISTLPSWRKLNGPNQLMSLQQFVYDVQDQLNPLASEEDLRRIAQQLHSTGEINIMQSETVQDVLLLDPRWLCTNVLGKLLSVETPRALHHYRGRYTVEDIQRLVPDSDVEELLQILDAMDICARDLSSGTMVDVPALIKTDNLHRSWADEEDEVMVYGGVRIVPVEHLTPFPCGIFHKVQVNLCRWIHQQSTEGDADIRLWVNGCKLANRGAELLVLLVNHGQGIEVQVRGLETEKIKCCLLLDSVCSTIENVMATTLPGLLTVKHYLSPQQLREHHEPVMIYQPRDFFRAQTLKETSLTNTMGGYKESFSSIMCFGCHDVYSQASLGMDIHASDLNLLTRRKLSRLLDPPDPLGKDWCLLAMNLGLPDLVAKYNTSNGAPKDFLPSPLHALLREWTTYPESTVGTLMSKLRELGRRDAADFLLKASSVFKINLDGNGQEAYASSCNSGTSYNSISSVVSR
Serine/threonine-protein kinase pim-1, sequence (P11309 whole entry): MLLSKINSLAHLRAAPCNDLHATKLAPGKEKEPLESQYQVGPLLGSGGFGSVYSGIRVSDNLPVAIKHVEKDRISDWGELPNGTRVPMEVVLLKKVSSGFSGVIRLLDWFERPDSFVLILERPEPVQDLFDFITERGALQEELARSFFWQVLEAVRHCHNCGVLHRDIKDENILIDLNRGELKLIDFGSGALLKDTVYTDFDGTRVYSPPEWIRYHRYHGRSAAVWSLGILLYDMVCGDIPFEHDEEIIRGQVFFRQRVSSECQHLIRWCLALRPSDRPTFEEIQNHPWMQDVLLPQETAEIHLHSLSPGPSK
Serine/threonine-protein kinase pim-2, sequence (Q9P1W9 whole entry): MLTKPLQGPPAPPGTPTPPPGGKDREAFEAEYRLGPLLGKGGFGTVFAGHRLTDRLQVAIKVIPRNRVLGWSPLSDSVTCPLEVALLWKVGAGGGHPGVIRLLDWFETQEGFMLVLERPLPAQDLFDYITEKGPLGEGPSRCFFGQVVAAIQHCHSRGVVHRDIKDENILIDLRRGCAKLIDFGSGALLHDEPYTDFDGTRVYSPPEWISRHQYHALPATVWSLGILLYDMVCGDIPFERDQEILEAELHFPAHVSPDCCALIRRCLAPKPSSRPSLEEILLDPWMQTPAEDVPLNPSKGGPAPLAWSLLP
Rho-associated protein kinase 2, sequence (O75116 whole entry): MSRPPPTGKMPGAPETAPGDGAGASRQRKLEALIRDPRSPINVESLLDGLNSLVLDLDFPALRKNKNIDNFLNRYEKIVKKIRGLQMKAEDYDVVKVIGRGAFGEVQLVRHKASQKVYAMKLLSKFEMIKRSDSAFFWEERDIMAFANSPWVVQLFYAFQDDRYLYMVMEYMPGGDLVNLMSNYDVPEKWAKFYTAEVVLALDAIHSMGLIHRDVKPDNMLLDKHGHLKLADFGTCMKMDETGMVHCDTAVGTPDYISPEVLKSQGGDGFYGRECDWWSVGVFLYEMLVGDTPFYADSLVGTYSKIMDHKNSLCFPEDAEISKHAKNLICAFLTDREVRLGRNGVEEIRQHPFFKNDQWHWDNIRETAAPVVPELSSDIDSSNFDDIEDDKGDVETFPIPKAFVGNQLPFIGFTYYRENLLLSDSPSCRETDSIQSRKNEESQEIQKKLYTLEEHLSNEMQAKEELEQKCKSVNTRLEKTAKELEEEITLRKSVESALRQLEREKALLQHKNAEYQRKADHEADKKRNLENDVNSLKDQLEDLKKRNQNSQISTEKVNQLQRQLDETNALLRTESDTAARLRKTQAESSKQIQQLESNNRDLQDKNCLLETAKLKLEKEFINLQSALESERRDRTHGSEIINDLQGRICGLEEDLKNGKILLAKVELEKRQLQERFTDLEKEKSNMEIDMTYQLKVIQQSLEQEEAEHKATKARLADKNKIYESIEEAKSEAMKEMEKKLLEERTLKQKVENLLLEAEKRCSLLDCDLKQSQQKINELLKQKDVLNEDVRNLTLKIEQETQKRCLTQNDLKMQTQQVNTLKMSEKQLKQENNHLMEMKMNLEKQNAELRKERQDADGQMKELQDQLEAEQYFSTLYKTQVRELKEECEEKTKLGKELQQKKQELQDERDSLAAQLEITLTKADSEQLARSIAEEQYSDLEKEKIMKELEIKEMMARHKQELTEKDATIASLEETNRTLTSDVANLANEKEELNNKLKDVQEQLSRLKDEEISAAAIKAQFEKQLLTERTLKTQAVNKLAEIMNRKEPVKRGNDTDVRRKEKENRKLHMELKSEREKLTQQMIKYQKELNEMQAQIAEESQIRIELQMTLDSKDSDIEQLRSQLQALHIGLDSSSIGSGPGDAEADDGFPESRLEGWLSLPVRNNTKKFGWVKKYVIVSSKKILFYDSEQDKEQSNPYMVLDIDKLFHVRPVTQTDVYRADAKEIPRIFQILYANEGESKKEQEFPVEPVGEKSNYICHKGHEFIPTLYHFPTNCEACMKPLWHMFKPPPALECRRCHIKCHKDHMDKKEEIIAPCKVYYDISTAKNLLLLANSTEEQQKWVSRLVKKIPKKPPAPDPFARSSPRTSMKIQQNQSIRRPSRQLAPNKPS

Row | pKd [2] | pIC50 [3] | pKd [4] | pKd [5] | Compound | pKd [1]
1 | 6.09 | < 3.70 | 5.74 | 5.19 | CC(Sc1nc2c(cnn2-c2cccc(Cl)c2)c(=O)[nH]1)C(N)=O (centres undefined) [HS38] | 6.52 and 7.10 and 6.55
2 | 5.80 | – | 5.74 | 5.49 | O=c1[nH]c(SCCO)nc2c1cnn2-c1cccc(Cl)c1 [HS43] | 5.82 and 6.49
